Measured values as given in US20040192686A1, “Benzoazine mono-N-oxides and benzoazine 1,4 dioxides and compositions therefrom for the therapeutic use in cancer treatments” (Auckland Uniservices Limited, priority 2003, published 2004).
Where a name gives a salt, the structure may show the parent alone.

Compound | melting point
Cc1ccc2c(c1)nc(NCCN(C)C)n[n+]2[O-] [Compound 76, N^1,N^1-Dimethyl-N^2-(6-methyl-1-oxido-1,2,4-benzotriazin-3-yl)-1,2-ethanediamine] | 143 to 145 °C
COCCNc1nc2ccccc2[n+]([O-])c1C#N [Compound 123, 3-[(2-Methoxyethyl)amino]-2-quinoxalinecarbonitrile 1-oxide] | 124 to 126 °C
O=C(O)Cc1ccc(Nc2nc3ccccc3[n+]([O-])n2)cc1 [Compound 52, {4-[(1-Oxido-1,2,4-benzotriazin-3-yl)amino]phenyl}acetic acid] | 243 to 245 °C
CC(C)c1ccc2c(c1)nc(NCCN1CCOCC1)n[n+]2[O-] [Compound 149, 6-Isopropyl-N-[2-(4-morpholinyl)ethyl]-1,2,4-benzotriazin-3-amine 1-Oxide] | 145 to 147 °C
CC(C)(C)c1ccc2c(c1)nc(Cl)n[n+]2[O-] [Compound 154, 6-tert-Butyl-3-chloro-1,2,4-benzotriazine 1-oxide] | 91 to 94 °C
CCN(CC)CCNc1nc2cc(C(C)C)ccc2[n+]([O-])n1 [Compound 148, N^1-(6-Isopropyl-1-oxido-1,2,4-benzotriazin-3-yl)-N^2,N^2-diethyl-1,2-ethanediamine] | 60 to 62 °C
COCCOc1ccc2nc(Cl)n[n+]([O-])c2c1 [Compound 96, 3-Chloro-7-(2-methoxyethoxy)-1,2,4-benzotriazine 1-oxide] | 121 to 125 °C
Cc1ccc2nc(NCCN3CCCCC3)n[n+]([O-])c2c1 [Compound 89, 7-Methyl-N-[2-(1-piperidinyl)ethyl]-1,2,4-benzotriazin-3-amine 1-oxide] | 166 to 168 °C
COCCc1cccc(Nc2nc3ccccc3[n+]([O-])n2)c1 [Compound 49, N-[3-(2-Methoxyethyl)phenyl]-1,2,4-benzotriazin-3-amine 1-oxide] | 122 to 124 °C
CCOC(=O)CNc1nc2ccccc2[n+]([O-])n1 [Compound 20, Ethyl [(1-oxido-1,2,4-benzotriazin-3-yl)amino]acetate] | 136 to 138 °C
[O-][n+]1nc(-c2ccccc2)nc2ccccc21 [Compound 57, 3-Phenyl-1,2,4-benzotriazine 1-oxide] | 125 to 127 °C
[N-]=[N+]=NCCCNc1nc2ccccc2[n+]([O-])n1 [Compound 28, N-(3-Azidopropyl)-1,2,4-benzotriazin-3-amine 1-oxide] | 128 to 130 °C
Cc1ccc2c(c1)nc(N)n[n+]2[O-] [Compound 3r, 6-Methyl-1,2,4-benzotriazin-3-amine 1-oxide] | 263 °C (dec.)
CCc1nc2ccc(OCCN3CCOCC3)cc2[n+]([O-])n1 [Compound 99, 3-Ethyl-7-[2-(4-morpholinyl)ethoxy]-1,2,4-benzotriazine 1-oxide] | 99 to 101 °C
COc1ccc2nc(NCCN3CCCCC3)n[n+]([O-])c2c1 [Compound 93, 7-Methoxy-N-[2-(1-piperidinyl)ethyl]-1,2,4-benzotriazin-3-amine 1-oxide] | 162 to 165 °C
COc1ccc2c(c1)nc(NCCN1CCOCC1)n[n+]2[O-] [Compound 86, 6-Methoxy-N-[2-(4-morpholinyl)ethyl]-1,2,4-benzotriazin-3-amine 1-oxide] | 186 to 188 °C
[O-][n+]1nc(NCCN2CCCCC2)nc2cc(Cl)ccc21 [Compound 135, 6-Chloro-N-[2-(1-piperidinyl)ethyl]-1,2,4-benzotriazin-3-amine 1-Oxide] | 178 to 181 °C
[O-][n+]1nc(NCCOCCO)nc2ccccc21 [Compound 33, 3-{[2-(2-Hydroxyethoxy)ethyl]amino}-1,2,4-benzotriazine 1-oxide] | 131 to 131.5 °C

Compound | melting point
CN(C)CCN(C)c1nc2ccccc2[n+]([O-])n1 (as salt: hydrochloride) [Compound 38, N^1,N^1,N^2-Trimethyl-N^2-(1-oxido-1,2,4-benzotriazin-3-yl)-1,2-ethanediamine] | 220 to 223 °C
CCN(CC)c1ccc2c(c1)nc(N)n[n+]2[O-] [Compound 13, N^6, N^6-Diethyl-1,2,4-benzotriazine-3,6-diamine 1-oxide] | 247 to 251 °C
CC(C)(C)c1ccc2c(c1)nc(NCCN1CCCCC1)n[n+]2[O-] [Compound 158, 6-tert-Butyl-N-[2-(1-piperidinyl)ethyl]-1,2,4-benzotriazin-3-amine 1-Oxide] | 145 to 148 °C
COc1ccc2c(c1)nc(NCCN1C(C)CCCC1C)n[n+]2[O-] (centres unmarked) [Compound 141, N-[2-(2,6-Dimethyl-1-piperidinyl)ethyl]-6-methoxy-1,2,4-benzotriazin-3-amine 1-oxide] | 170 to 171 °C
CC(C)(C)OC(=O)NCCCNc1nc2ccccc2[n+]([O-])n1 [Compound 29, tert-Butyl 3-[(1-oxido-1,2,4-benzotriazin-3-yl)amino]propylcarbamate] | 145 to 147 °C
CSc1ccc2c(c1)nc(N)n[n+]2[O-] [Compound 3w, 6-(Methylsulfanyl)-1,2,4-benzotriazin-3-amine 1-oxide] | 248 to 250 °C
CC(C)(C)ONC(=O)CCOCCNc1nc2ccccc2[n+]([O-])n1 [Compound 35, 3-{[2-(2-tert-Butyloxycarbamoylethoxy)ethyl]amino}-1,2,4-benzotriazine 1-oxide] | 134 to 137 °C
Cl.[O-][n+]1nc(CCCN2CCCCC2)nc2ccccc21 | 151 to 153 °C
CSc1ccc2nc(N)n[n+]([O-])c2c1 [Compound 3n, 7-(Methylsulfanyl)-1,2,4-benzotriazin-3-amine 1-oxide] | 245 to 247 °C
Cc1cc2nc(NCCN3CCOCC3)n[n+]([O-])c2cc1C [Compound 167, 6,7-Dimethyl-N-[2-(4-morpholinyl)ethyl]-1,2,4-benzotriazi n-3-amine 1-Oxide] | 211 to 213 °C
Cc1ccc2nc(N)n[n+]([O-])c2c1 [Compound 3j, 7-Methyl-1,2,4-benzotriazin-3-amine 1-oxide] | 270 °C (dec.)
CSc1cccc2nc(N)n[n+]([O-])c12 (hydrate or solvate) [Compound 3f, 8-(Methylsulfanyl)-1,2,4-benzotriazin-3-amine 1-oxide] | 271 to 275 °C
COc1cccc2c1nc(N)n[n+]2[O-] [Compound 3y, 5-Methoxy-1,2,4-benzotriazin-3-amine 1-oxide] | 267 °C (dec.)
COCCOc1ccc2nc(N)n[n+]([O-])c2c1 [Compound 14, 7-(2-Methoxyethoxy)-1,2,4-benzotriazin-3-amine 1-oxide] | 201 to 203 °C
O=C(O)CNc1nc2ccccc2[n+]([O-])n1 [Compound 21, [(1-Oxido-1,2,4-benzotriazin-3-yl)amino]acetic acid] | 217 to 219 °C
Cc1ccc2c(c1)nc(NCCO)n[n+]2[O-] [Compound 74, 2-[(6-Methyl-1-oxido-1,2,4-benzotriazin-3-yl)amino]ethanol] | 198 to 202 °C
O=C(NCCOCCNc1nc2ccccc2[n+]([O-])n1)c1cccc2cc3ccccc3nc12 [Compound 121, N-(2-{2-[(1-Oxido-1,2,4-benzotriazin-3-yl)amino]ethoxy}ethyl)-4-acridinecarboxamide] | 178 to 182 °C
